Laboratory results from patent US8119695B2, “Compounds and methods for treating breast cancer and other diseases” (City of Hope, priority 2003, dated 2012).
“And” between values parts separate entries of the source, which are not always exact repeats. Equal values may be shown once.

Columns and labels:
Format in all cases: cell-based
MH100x4 = MH100x4 luciferase reporter without receptor
From the text: (§1) MH100x4 is a luciferase reporter with four copies of a GAL4 […] response element. GAL-L refers to the ligand-binding domain of the indicated receptor fused to the C-terminus of the GAL4 DNA binding domain.

ERRβ (GAL-L-ERRb) = target: T1, ERRβ (GAL-L-ERRb) (Homo sapiens, UniProt O95718); test: MH100x4 luciferase reporter with GAL-L-ERRb; parameters: Reporter Activity: unit not given here
T1 construct: expressed in transfected cells
T1 sequence (O95718 208-432 limits assumed): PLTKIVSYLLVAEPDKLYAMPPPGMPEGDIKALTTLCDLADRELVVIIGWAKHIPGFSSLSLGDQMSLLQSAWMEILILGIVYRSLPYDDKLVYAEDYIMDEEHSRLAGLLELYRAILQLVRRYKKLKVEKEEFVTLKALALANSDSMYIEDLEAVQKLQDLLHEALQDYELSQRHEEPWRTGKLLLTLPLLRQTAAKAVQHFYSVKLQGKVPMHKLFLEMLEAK
From the text: as §1

ERRα (GAL-ERRa) = test: MH100x4 luciferase reporter with GAL-ERRa; parameters: Reporter Activity: unit not given here
From the text: as §1

ERRγ (GAL-ERRg) = test: MH100x4 luciferase reporter with GAL-ERRg; parameters: Reporter Activity: unit not given here
From the text: as §1

ERE-TK-luc = ERE-TK-luc reporter without receptor, E2 100 nM
[1] = Table 4, DY39 dose head 0 (1st of 2), None 1
[2] = Table 4, DY39 dose head 0 (2nd of 2), None 1
[3] = Table 2, dose 5 (unit not given), None 1.00
[4] = Table 2, dose 5 (unit not given), None 1.44
[5] = Table 2, dose 5 (unit not given), None 8.54
[6] = Table 2, dose 5 (unit not given), None 1.25
[7] = Table 2, dose 5 (unit not given), None 0.49

## CC(C)CC(=C(c1ccc(O)cc1)c1ccc(OCCN(C)C)cc1)c1ccccc1 (mixture of isomers) [DY39]
MH100x4; [1]
  Fold Activation: 1.08
MH100x4; Table 4, DY39 dose head 0 (1st of 2), None 1.14
  Reporter Activity: 1.23
MH100x4; [2]
  Fold Activation: 0.89
MH100x4; Table 4, DY39 dose head 0 (2nd of 2), None 1.14
  Reporter Activity: 1.02
MH100x4; Table 4, dose 0.1 (unit not given), None 1/1.03
  Fold Activation: 0.96
MH100x4; Table 4, dose 0.1 (unit not given), None 1.14/1.17
  Reporter Activity: 1.1
MH100x4; Table 4, dose 0.3 (unit not given), None 1/1.03
  Fold Activation: 0.96
MH100x4; Table 4, dose 0.3 (unit not given), None 1.14/1.17
  Reporter Activity: 1.09
MH100x4; Table 4, dose 1 (unit not given), None 1/1.03
  Fold Activation: 0.8
MH100x4; Table 4, dose 1 (unit not given), None 1.14/1.17
  Reporter Activity: 0.9
MH100x4; Table 4, dose 3 (unit not given), None 1/1.03
  Fold Activation: 0.73
MH100x4; Table 4, dose 3 (unit not given), None 1.14/1.17
  Reporter Activity: 0.83
ERRβ (GAL-L-ERRb); [1]
  Fold Activation: 1.25
ERRβ (GAL-L-ERRb); Table 4, DY39 dose head 0 (1st of 2), None 7.21
  Reporter Activity: 9.02
ERRβ (GAL-L-ERRb); [2]
  Fold Activation: 1.04
ERRβ (GAL-L-ERRb); Table 4, DY39 dose head 0 (2nd of 2), None 7.21
  Reporter Activity: 7.53
ERRβ (GAL-L-ERRb); Table 4, dose 0.1 (unit not given), None 1/1.2
  Fold Activation: 1.2
ERRβ (GAL-L-ERRb); Table 4, dose 0.1 (unit not given), None 7.21/8.67
  Reporter Activity: 8.63
ERRβ (GAL-L-ERRb); Table 4, dose 0.3 (unit not given), None 1/1.2
  Fold Activation: 0.95
ERRβ (GAL-L-ERRb); Table 4, dose 0.3 (unit not given), None 7.21/8.67
  Reporter Activity: 6.84
ERRβ (GAL-L-ERRb); Table 4, dose 1 (unit not given), None 1/1.2
  Fold Activation: 0.4
ERRβ (GAL-L-ERRb); Table 4, dose 1 (unit not given), None 7.21/8.67
  Reporter Activity: 2.9
ERRβ (GAL-L-ERRb); Table 4, dose 3 (unit not given), None 1/1.2
  Fold Activation: 0.28
ERRβ (GAL-L-ERRb); Table 4, dose 3 (unit not given), None 7.21/8.67
  Reporter Activity: 1.99
ERRβ (GAL-L-ERRb); result in words
  inhibition of the activity of ERRβ: inhibit the activity
ERRα (GAL-ERRa); [1]
  Fold Activation: 1.09
ERRα (GAL-ERRa); Table 4, DY39 dose head 0 (1st of 2), None 27.7
  Reporter Activity: 30.2
ERRα (GAL-ERRa); [2]
  Fold Activation: 0.95
ERRα (GAL-ERRa); Table 4, DY39 dose head 0 (2nd of 2), None 27.7
  Reporter Activity: 26.4
ERRα (GAL-ERRa); Table 4, dose 0.1 (unit not given), None 1/1.23
  Fold Activation: 1.08
ERRα (GAL-ERRa); Table 4, dose 0.1 (unit not given), None 27.7/34.05
  Reporter Activity: 30
ERRα (GAL-ERRa); Table 4, dose 0.3 (unit not given), None 1/1.23
  Fold Activation: 1.09
ERRα (GAL-ERRa); Table 4, dose 0.3 (unit not given), None 27.7/34.05
  Reporter Activity: 30.1
ERRα (GAL-ERRa); Table 4, dose 1 (unit not given), None 1/1.23
  Fold Activation: 1.2
ERRα (GAL-ERRa); Table 4, dose 1 (unit not given), None 27.7/34.05
  Reporter Activity: 33
ERRα (GAL-ERRa); Table 4, dose 3 (unit not given), None 1/1.23
  Fold Activation: 1.31
ERRα (GAL-ERRa); Table 4, dose 3 (unit not given), None 27.7/34.05
  Reporter Activity: 36.2
ERRγ (GAL-ERRg); [1]
  Fold Activation: 0.94
ERRγ (GAL-ERRg); Table 4, DY39 dose head 0 (1st of 2), None 5.49
  Reporter Activity: 5.14
ERRγ (GAL-ERRg); [2]
  Fold Activation: 0.96
ERRγ (GAL-ERRg); Table 4, DY39 dose head 0 (2nd of 2), None 5.49
  Reporter Activity: 5.25
ERRγ (GAL-ERRg); Table 4, dose 0.1 (unit not given), None 1/1.01
  Fold Activation: 0.94
ERRγ (GAL-ERRg); Table 4, dose 0.1 (unit not given), None 5.49/5.56
  Reporter Activity: 5.18
ERRγ (GAL-ERRg); Table 4, dose 0.3 (unit not given), None 1/1.01
  Fold Activation: 0.91
ERRγ (GAL-ERRg); Table 4, dose 0.3 (unit not given), None 5.49/5.56
  Reporter Activity: 4.97
ERRγ (GAL-ERRg); Table 4, dose 1 (unit not given), None 1/1.01
  Fold Activation: 0.5
ERRγ (GAL-ERRg); Table 4, dose 1 (unit not given), None 5.49/5.56
  Reporter Activity: 2.7
ERRγ (GAL-ERRg); Table 4, dose 3 (unit not given), None 1/1.01
  Fold Activation: 0.3
ERRγ (GAL-ERRg); Table 4, dose 3 (unit not given), None 5.49/5.56
  Reporter Activity: 1.67
ERRγ (GAL-ERRg); result in words
  inhibition of the activity of ERRγ: inhibit the activity

## CC/C(=C(\c1ccc(O)cc1)c1ccc(OCCN(C)C)cc1)c1ccccc1 [4-OH Tamoxifen, (Z)-4-hydroxytamoxifen, reference compound]
ERE-TK-luc
  Reporter Activity: 1.2 and 0.98 and 1.58 and 1.48 and 1.61 and 1.34

## CCCCCCCCCCCCOc1ccc(/C(CC)=C(\CC)c2ccc(O)cc2)cc1 [DY14]
ERRβ (GAL-L-ERRb); [3]
  Fold Activation: 0.96
ERRβ (GAL-L-ERRb); [4]
  Reporter Activity: 1.38
ERRα (GAL-ERRa); [3]
  Fold Activation: 1.01
ERRα (GAL-ERRa); [5]
  Reporter Activity: 8.63
ERRγ (GAL-ERRg); [3]
  Fold Activation: 1.10
ERRγ (GAL-ERRg); [6]
  Reporter Activity: 1.38

## CCCCCCCCCCCCOc1ccc(C(CC)=C(CC)c2ccc(OCCCCCCCCCCCC)cc2)cc1 [DY15]
MH100x4; [7]
  Reporter Activity: 0.4
MH100x4; [3]
  Fold Activation: 0.82
ERRβ (GAL-L-ERRb); [3]
  Fold Activation: 0.69
ERRβ (GAL-L-ERRb); [4]
  Reporter Activity: 1
ERRα (GAL-ERRa); [3]
  Fold Activation: 0.83
ERRα (GAL-ERRa); [5]
  Reporter Activity: 7.06
ERRγ (GAL-ERRg); [3]
  Fold Activation: 0.89
ERRγ (GAL-ERRg); [6]
  Reporter Activity: 1.11

## CCC(=C(CC)c1ccc(O)c(C=C(C)C)c1)c1ccc(O)cc1 [DY16]
MH100x4; [7]
  Reporter Activity: 0.35
MH100x4; [3]
  Fold Activation: 0.71
ERRβ (GAL-L-ERRb); [3]
  Fold Activation: 0.49
ERRβ (GAL-L-ERRb); [4]
  Reporter Activity: 0.71
ERRα (GAL-ERRa); [3]
  Fold Activation: 0.66
ERRα (GAL-ERRa); [5]
  Reporter Activity: 5.63
ERRγ (GAL-ERRg); [3]
  Fold Activation: 0.91
ERRγ (GAL-ERRg); [6]
  Reporter Activity: 1.14

## CCC(=C(CC)c1ccc(O)c(C(C)C)c1)c1ccc(O)cc1 [DY17]
MH100x4; [7]
  Reporter Activity: 0.39
MH100x4; [3]
  Fold Activation: 0.80
ERRβ (GAL-L-ERRb); [3]
  Fold Activation: 0.53
ERRβ (GAL-L-ERRb); [4]
  Reporter Activity: 0.76
ERRα (GAL-ERRa); [3]
  Fold Activation: 0.61
ERRα (GAL-ERRa); [5]
  Reporter Activity: 5.18
ERRγ (GAL-ERRg); [3]
  Fold Activation: 0.73
ERRγ (GAL-ERRg); [6]
  Reporter Activity: 0.91

## CCC(=C(CC)c1ccc(O)c(C(C)(C)C)c1)c1ccc(O)cc1 [DY18]
MH100x4; [7]
  Reporter Activity: 0.26
MH100x4; [3]
  Fold Activation: 0.53
ERRβ (GAL-L-ERRb); [3]
  Fold Activation: 0.42
ERRβ (GAL-L-ERRb); [4]
  Reporter Activity: 0.6
ERRα (GAL-ERRa); [3]
  Fold Activation: 0.40
ERRα (GAL-ERRa); [5]
  Reporter Activity: 3.39
ERRγ (GAL-ERRg); [3]
  Fold Activation: 0.58
ERRγ (GAL-ERRg); [6]
  Reporter Activity: 0.73

## CCC(=C(CC)c1ccc(Oc2cccc(C=O)c2)cc1)c1ccc(O)cc1 [DY19]
MH100x4; [7]
  Reporter Activity: 0.37
MH100x4; [3]
  Fold Activation: 0.76
ERRβ (GAL-L-ERRb); [3]
  Fold Activation: 0.58
ERRβ (GAL-L-ERRb); [4]
  Reporter Activity: 0.84
ERRα (GAL-ERRa); [3]
  Fold Activation: 0.62
ERRα (GAL-ERRa); [5]
  Reporter Activity: 5.27
ERRγ (GAL-ERRg); [3]
  Fold Activation: 0.82
ERRγ (GAL-ERRg); [6]
  Reporter Activity: 1.02
